The text below walks through data of patent US4996214A, “Quinolinyl substituted phenyl/thioalkanoic acid substituted propionic acids and leucotriene antagonist use thereof” (SmithKline Beecham Corporation, priority 1990, dated 1991).

For orientation: pKi means the negative decadic logarithm of the Ki, by convention in mol/L.

The target in this test is T1, LTD4 (Cavia porcellus, UniProt Q2NNR5).
T1 construct: tracheal spiral strips of approximate dimensions 2 to 3 mm cross-sectional width; from tissue; host or cells: guinea pig (adult male albino Hartley) tracheal spiral strips
T1 sequence (Q2NNR5 1-340): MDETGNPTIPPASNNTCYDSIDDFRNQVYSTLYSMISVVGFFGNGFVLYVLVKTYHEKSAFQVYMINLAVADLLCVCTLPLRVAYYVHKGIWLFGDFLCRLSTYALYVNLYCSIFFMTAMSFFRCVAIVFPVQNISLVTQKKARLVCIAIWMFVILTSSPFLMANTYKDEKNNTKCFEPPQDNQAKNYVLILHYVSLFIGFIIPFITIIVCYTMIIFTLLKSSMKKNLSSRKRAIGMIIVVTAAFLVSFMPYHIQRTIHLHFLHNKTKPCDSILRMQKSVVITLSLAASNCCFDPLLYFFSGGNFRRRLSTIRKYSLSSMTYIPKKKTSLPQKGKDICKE
Put plainly: inhibition of leukotriene (LTD4) induced contraction of guinea pig tracheal tissues in vitro. It counts as cell-based. How it is done:
The leukotriene antagonist activity of the compounds of this invention was measured by the ability of the compounds to inhibit the leukotriene induced contraction of guinea pig tracheal tissues in vitro. The following methodology was employed: In vitro: Guinea pig (adult male albino Hartley strain) tracheal spiral strips of approximate dimensions 2 to 3 mm cross-sectional width and 3.5 cm length were bathed in modified Krebs buffer in jacketed 10 ml tissue bath and continuously aerated with 95% O2 /5% CO2. The tissues were connected via silk suture to force displacement transducers for recording isometric tension. The tissues were equilibrated for 1 hour, pretreated for 15 minutes with meclofenamic acid ([…]) to remove intrinsic prostaglandin responses, and then pretreated for an additional 30 minutes with either the test compound or vehicle control. […]
Calculations: The averages of the triplicate LTD4 concentration-response curves both in the presence and absence of the test compound were plotted on log graph paper. The concentration of LTD4 needed to elicit 30% of the contraction elicited by carbachol was measured and defined as the EC30. The -log KB value for the test compound was determined by the following equations: [formula] […]
The antagonist activity of representative compounds of this invention is tabulated below. The -log KB values were calculated from the above test protocols. […]

pKi: −log10 of the molar value.

Regarding `O=C(O)CCSC(CC(=O)O)c1ccccc1CCCCCCCc1ccc2ccc(Cl)cc2n1` (centres unmarked) [3-{2-[7-(2-(7-Chloro)quinolinyl)heptyl]phenyl}-3,3'-thiodipropionic acid], the Kb (LTD4 concentration-response on guinea pig tracheal spiral strips, EC30 shift, 30 min pretreatment with test compound, read-out: pKB (-log KB) (converted)) is 0.0316 µM. In addition, the pKi (stated as 'in this assay', separate method not given) was 8.11.
